According to US10611729B2, “Farnesoid X receptor antagonists” (City of Hope, priority 2014, dated 2020):
Like-named read-outs stand apart in the source and are kept apart here.

Assays:
FXR [1] = biological target: T1, FXR (Homo sapiens, UniProt Q96RI1); test: GeneBLAzer FXR cell-based antagonistic assay (in presence of 400 nM GW4064); design: the Gal4 DBD was fused to the LBD of FXR in this assay; host or cells: GeneBLAzer FXR-UAS-bla HEK 293T cells; conditions: for IC50: with 400 nM GW4064, read-out: GB FXR Cell Anta. IC50
T1 sequence (Q96RI1 262-486 limits assumed): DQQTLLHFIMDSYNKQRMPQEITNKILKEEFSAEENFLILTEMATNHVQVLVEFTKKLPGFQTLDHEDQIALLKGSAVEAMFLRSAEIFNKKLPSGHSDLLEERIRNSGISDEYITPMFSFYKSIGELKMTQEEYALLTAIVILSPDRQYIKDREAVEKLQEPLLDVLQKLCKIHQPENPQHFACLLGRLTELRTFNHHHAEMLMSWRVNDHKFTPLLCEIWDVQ
Description: A GeneBLAzer FXR cell-based assay was used to investigate the cellular activities of the 1,3,4-trisubstituted-pyrazol-4-carboxamide analogs. The assay detects the levels of a […] reporter controlled by a promoter containing the binding site of the DNA binding domain (DBD) of the GAL4 transcription factor; the Gal4 DBD was fused to the LBD of FXR in this assay.^35
(§1) FXR transactivation assays were performed using GeneBLAzer FXR-UAS-bla HEK 293T cells (Invitrogen). Cells were maintained according to the manufacturer's instructions. […] Plates were then incubated in dark for 90 min at room temperature before measuring the fluorescent emissions at 460 nm and 535 nm (using excitation at 400 nm) with an Envision plate reader with bottom read capacity. After background signal subtraction for individual emission channels, emission signals at 460 and 535 nm from each well were used to determine the ratio of 460 nm/535 nm. […] The % activation was calculated using equation 2.
The % inhibition was calculated using equation 3.

FXR [2] = biological target: T1, FXR; test: FXR TR-FRET binding assay (DY246 fluorescent probe); conditions: for inhibition at 0.164 µM: at 164 nM; for IC50: mean ± SE
Description: The FXR TR-FRET binding assay was performed as previously described^23 with modifications. […] The plate was spun down after a brief shake and incubated at room temperature for 20 min. The TR-FRET emission signals at 520 nm and 490 nm for each well was then collected using a PHERAstar plate reader (BMG LABTECH, Cary, N.C.) with an excitation wavelength of 337 nm, 100-μs delay time, and 200-μs integration time. The 520 nm/490 nm ratio from each well was then calculated. […] The % inhibition of tested chemicals at given concentration was calculated based on negative and positive controls using equation 1.

FXR [3] = biological target: T1, FXR; test: GeneBLAzer FXR cell-based agonistic assay; design: the Gal4 DBD was fused to the LBD of FXR in this assay; host or cells: GeneBLAzer FXR-UAS-bla HEK 293T cells; conditions: without GW4064, 16 h
Description: The reporter assays were performed after a16 h incubation.
as §1

[4] = tested on: GeneBLAzer FXR-UAS-bla HEK 293T cells; conditions: for GB FXR Cell Cyto % Inh.: human, 16 h, 40 μM
Description: (§2) To examine if certain chemical antagonistic effect was caused by cytotoxicity, the same GeneBLAzer FXR cells were used to perform cytotoxicity assay. This assay was set up like the FXR agonistic assay, with the exception of signal reading. Instead of detecting the reporter activities, CellTiter-Glo® assay was used to detect cell viability. DMSO with cells or without cells group were served as negative (0% Inhibition) or positive (100% Inhibition), respectively.
(§3) Cytotoxicity assays were performed side-by-side with the FXR agonistic assay using GeneBLAzer FXR-UAS-bla HEK 293T cells with CellTiter-Glo® Luminescent Cell Viability Assay reagent (Promega). Briefly, cells were maintained in DMEM supplemented with 10% dialyzed FBS, 0.1 mM non-essential amino acids, 25 mM HEPES, 100 μg/ml of hygromycin B, 100 μg/ml of zeocin, 100 units/ml penicillin and 100 μg/ml streptomycin in regular tissue culture flasks. […] As a positive control, the wells in column 24 of each plate were filled with 30 μL assay medium along with 0.5% DMSO. The final DMSO concentration was 0.5% in each assay well. After a 16 h incubation in a cell culture incubator at 37° C., the cell plates were cooled at room temperature for 20 min and then CellTiter-Glo® reagent 20 μl/well was added followed by an incubation for 20 min in the dark to allow the development of optimal luminescence signal. The luminescence signal from each well in plates was collected with an Envision plate reader equipped with Ultra-sensitive Luminescence detector. The DMSO group and no cell group served as negative (0% activation) and positive (100% activation) controls, respectively. The % inhibition was calculated using equation 4 below.

[5] = tested on: GeneBLAzer FXR-UAS-bla HEK 293T cells; test: Cytotoxicity assay in GeneBLAzer FXR cells (CellTiter-Glo); conditions: class symbol NT
Description: as §2, §3

[6] = read-out: GB FXR Cell Anta. % Inh.
[7] = read-out: FXR TR-FRET Binding % Inh.

Row | SMILES | inhibition at 40 µM (FXR [1]; [6]) | IC50 (FXR [1]) | IC50 (FXR [2]) | GB FXR Cell Cyto % Inh. [4] | activity against FXR at 1 μM (FXR [1]) | inhibition at 40 µM (FXR [2]; [7]) | further results
1 | Cc1ccc(NC(=O)c2cn(C(C)C)nc2-c2ccc(C(F)(F)F)cc2)cc1S(=O)(=O)N1CCOCC1 [Compound 4p, 1-Isopropyl-N-(4-methyl-3-(morpholinosulfonyl)phenyl)-3-(4-(trifluoromethyl)phenyl)-1H-pyrazole-4-carboxamide] | 100 ± 3.7% | 1950 ± 280 nM | 77.5 ± 3.7 nM | 19.5 ± 1.1% |  |  | inhibition at 4.4 µM (FXR [2]; [7]): 133 ± 5.3%
2 | Cc1ccc(-c2nn(C(C)C)cc2C(=O)N(C)c2ccc(C)c(S(=O)(=O)N3CCOCC3)c2)cc1 [Compound 8-1, 1-Isopropyl-N-methyl-N-(4-methyl-3-(morpholinosulfonyl)phenyl)-3-(p-tolyl)-1H-pyrazole-4-carboxamide] | 86.4 ± 2.8% | 16200 nM | 489 ± 21.2 nM | 15.0 ± 0.7% | weak activity | 133 ± 6.2% | 
3 | Cc1ccc(-c2nn(-c3ccccc3)cc2C(=O)Nc2ccc(C)c(S(=O)(=O)N3CCOCC3)c2)cc1 [Compound Z26476908, reference compound] | 77.2 ± 2.2% | 2620 nM | 47 ± 5.1 nM | 17.9 ± 0.5% |  |  | inhibition at 0.164 µM (FXR [2]; [7]): 100 ± 5.2%
4 | CC(C)c1onc(-c2c(Cl)cccc2Cl)c1COc1ccc(/C=C/c2cccc(C(=O)O)c2)c(Cl)c1 [GW4064] |  |  |  |  |  |  | GB FXR Cell Cyto % Inh. [5]: NT (NT: Not toxic (toxicity less than 5%))
5 | C[C@H](CCC(=O)O)[C@H]1CC[C@H]2[C@@H]3CC[C@@H]4C[C@H](O)CC[C@]4(C)[C@H]3CC[C@]12C [Lithocholic Acid, lithocholic acid] |  |  |  |  |  |  | GB FXR Cell Cyto % Inh. [5]: NT (NT: Not toxic (toxicity less than 5%))

More lines, main results first:

Row | inhibition at 40 µM (FXR [1]; [6]) | IC50 (FXR [1]) | IC50 (FXR [2]) | GB FXR Cell Cyto % Inh. [4] | activity against FXR at 1 μM (FXR [1]) | inhibition at 40 µM (FXR [2]; [7]) | SMILES | further results
6 | 98.9 ± 4.3% | 468 ± 8.4 nM | 7.5 nM |  |  |  | COc1cccc(Cn2cc(C(=O)Nc3ccc(C)c(S(=O)(=O)N4CCOCC4)c3)c(-c3ccc(C)cc3)n2)c1 [Compound 4j, 1-(3-Methoxybenzyl)-N-(4-methyl-3-(morpholinosulfonyl)phenyl)-3-(p-tolyl)-1H-pyrazole-4-carboxamide] | FXR antagonistic activity, SAR statement in words (FXR [1]): enhanced antagonistic activity; fold more potent than Z26476908 in antagonistic assay (FXR [1]; ratio of IC50 values): 4.59 fold; inhibition at 0.164 µM (FXR [2]; [7]): 130 ± 5.4%; fold more potent than Z26476908 in FXR TR-FRET binding assay (FXR [2]; ratio of IC50 values): 5.26 fold; FXR agonistic activity (FXR [3]): no FXR agonistic activity; cytotoxicity [4]: no cytotoxicity
7 |  |  | 5330 ± 240 nM | 13.5 ± 0.4 (40 μM) % | weak activity | 80.3 ± 5.2% | COc1cccc(Cn2cc(C(=O)N(C)c3ccc(C)c(S(=O)(=O)N4CCOCC4)c3)c(C(C)C)n2)c1 [Compound 8-2, 3-Isopropyl-1-(3-methoxybenzyl)-N-methyl-N-(4-methyl-3-(morpholinosulfonyl)phenyl)-1H-pyrazole-4-carboxamide] | inhibition at 20 µM (FXR [1]; [6]): 2.4 ± 0.1%
8 | 23.8 ± 0.4% |  | 3810 ± 200 nM | 19.7 ± 0.4 (40 μM) % | weak activity | 69.7 ± 3.5% | COc1cccc(Cn2cc(C(=O)N(C)c3ccc(C)c(S(=O)(=O)N4CCOCC4)c3)c(-c3cccc(OC)c3)n2)c1 [Compound 8-3, 1-(3-Methoxybenzyl)-3-(3-methoxyphenyl)-N-methyl-N-(4-methyl-3-(morpholinosulfonyl)phenyl)-1H-pyrazole-4-carboxamide] | 
9 | 36.8 ± 0.3% |  | 2040 ± 20 nM | 10.5 ± 0.3% |  |  | Cc1ccc(-c2nn(C(C)C)cc2CNc2ccc(C)c(S(=O)(=O)N3CCOCC3)c2)cc1 [Compound 9-1, N-((1-Isopropyl-3-(p-tolyl)-1H-pyrazol-4-yl)methyl)-4-methyl-3-(morpholinosulfonyl)aniline] | inhibition at 13.3 µM (FXR [2]; at 13.3 μM, read-out: FXR TR-FRET Binding % Inh.): 99.5 ± 2.6%
10 | 64.8 ± 1.9% | 27800 ± 1540 nM | 2310 ± 320 nM | 13.9 ± 0.6 (40 μM) % |  |  | COc1cccc(Cn2cc(CNc3ccc(C)c(S(=O)(=O)N4CCOCC4)c3)c(C(C)C)n2)c1 [Compound 9-2, N-((3-Isopropyl-1-(3-methoxybenzyl)-1H-pyrazol-4-yl)methyl)-4-methyl-3-(morpholinosulfonyl)aniline] | inhibition at 4.4 µM (FXR [2]; [7]): 72.5 ± 2.7%
